Assay results published in US20240279220A1, “INDOLE COMPOUNDS AND METHODS OF USE” (Genzyme Corporation, priority 2021, published 2024).

tested on: NBD1/3D; test: Aggregation analysis using differential static light scattering (DSLS), NBD1 thermal stability; type: binding, Human; settings: ΔTagg versus DMSO control; compound at 100 μM
Method: Purified recombinant NBD1 was produced using previously described methods (A. Schmidt, J. L. Mendoza, P. J. Thomas (2011) Biochemical and Biophysical Approaches to Probe CFTR Structure (365-376) M. D. Amaral, K. Kunzelmann (eds.), Cystic Fibrosis, Methods in Molecular Biology 741, Springer Science+Business Media). The effect of test compounds on thermal stability of NBD1 was evaluated by differential static light scattering (DSLS) using the Harbinger Stargazer-384 instrument (Epiphyte Three, Toronto, Canada).
Test compounds were dissolved and diluted to desired concentrations in 100% DMSO. The compounds or DMSO controls (100 nL) were stamped into wells of a […] low volume optical plate (Corning Inc., Corning, NY) using the Echo 555 acoustic liquid handler (Labcyte Inc., San Jose, CA).
NBD1 protein was diluted to 0.2 mg/ml in S200 buffer (50 mM Tris-HCl, 150 mM NaCl, 5 mM MgCl2, 2 mM ATP, 2 mM DTT, pH7.6) containing 1% glycerol. 10 uL of protein solution was aliquoted into the 384-well plate harboring the test compounds and 10 uL mineral oil was overlayed onto the protein solution, using the epMotion robotic liquid handler (Eppendorf North America, Hauppauge, NY). After placing into the Stargazer instrument, the plate was heated at 1° C. per minute to 70° C. Images were captured from 25° C. to 70° C. every 0.5° C. At the end of the experiment run, instrument software integrated image files and analyzed data automatically. A […] regression curve was generated for each well, representing the increase in light scattering over time. A temperature of aggregation (Tagg) was calculated based on the inflection point of the curve. To better compare data across experiments the average Tagg for DMSO control wells was calculated and subtracted from values for wells containing compounds to obtain a “ΔTagg” value. These ΔTagg values reflect stabilizing efficacy of the compounds.

Row | SMILES | DSLS NBD1/3D Human Stability delta-T (° C.) @ 100 (μM)
1 | CC(O)(c1cccc([C@@H]2C[C@H]2C(=O)O)c1)c1c[nH]c(-c2cccc(Oc3c(F)cc4[nH]ccc4c3F)c2)n1 (mixture of isomers) [Example 184, rac-(1r,2r)-2-(3-(1-(2-(3-((4,6-Difluoro-1H-indol-5-yl)oxy)phenyl)-1H-imidazol-4-yl)-1-hydroxyethyl)phenyl)cyclopropane-1-carboxylic acid] | B (B: 5-10° C.)
2 | Cc1c(Oc2cccc(-c3nnc(Cc4cccc([C@@H]5C[C@H]5C(=O)O)c4)[nH]3)c2)ccc2[nH]ccc12 (racemic) [Example 243, rac-(1R,2R)-2-(3-((5-(3-((4-Methyl-1H-indol-5-yl)oxy)phenyl)-4H-1,2,4-triazol-3-yl)methyl)phenyl)cyclopropane-1-carboxylic acid] | B (B: 5-10° C.)
3 | Cc1c(Oc2ccc(F)c(-c3ncc([C@]4(c5cccc(CCC(=O)O)c5)C[C@@H](O)CO4)[nH]3)c2)c(F)cc2[nH]ccc12 (racemic) [Example 275, rac-3-(3-((2r,4r)-2-(2-(2-Fluoro-5-((6-fluoro-4-methyl-1H-indol-5-yl)oxy)phenyl)-1H-imidazol-5-yl)-4-hydroxytetrahydrofuran-2-yl)phenyl)propanoic acid] | B (B: 5-10° C.)
4 | Cc1c(Oc2ccc(F)c(-c3ncc(C(C)c4cccc([C@@H]5C[C@H]5C(=O)O)c4F)[nH]3)c2)c(F)cc2[nH]ccc12 (relative stereo) [Example 139E, trans-2-(2-fluoro-3-(1-(2-(2-fluoro-5-((6-fluoro-4-methyl-1H-indol-5-yl)oxy)phenyl)-1H-imidazol-5-yl)ethyl)phenyl)cyclopropane-1-carboxylic acid] | B (B: 5-10° C.)
5 | CC(c1ccn(-c2cccc(Oc3c(F)cc4[nH]ccc4c3S(C)(=O)=O)c2)n1)c1cccc(CCC(=O)O)c1F (single isomer, unassigned) [Example 23A, 3-(2-fluoro-3-(1-(1-(3-((6-fluoro-4-(methylsulfonyl)-1H-indol-5-yl)oxy)phenyl)-1H-pyrazol-3-yl)ethyl)phenyl)propanoic acid] | C (C: ≤5° C.)
6 | CC(c1cccc(CCC(=O)O)c1F)n1ccc(-c2cc(Oc3c(F)cc4[nH]ccc4c3S(C)(=O)=O)ccc2F)n1 (single isomer, unassigned) [Example 41A, 3-(2-fluoro-3-(1-(3-(2-fluoro-5-((6-fluoro-4-(methylsulfonyl)-1H-indol-5-yl)oxy)phenyl)-1H-pyrazol-1-yl)ethyl)phenyl)propanoic acid] | C (C: ≤5° C.)
7 | CC(c1coc(-c2cc(Oc3c(F)cc4[nH]ccc4c3S(C)(=O)=O)ccc2F)n1)c1cccc(CCC(=O)O)c1F (single isomer, unassigned) [Example 43B, 3-(2-fluoro-3-(1-(2-(2-fluoro-5-((6-fluoro-4-(methylsulfonyl)-1H-indol-5-yl)oxy)phenyl)oxazol-4-yl)ethyl)phenyl)propanoic acid] | C (C: ≤5° C.)
8 | [2H]C([2H])([2H])C(C#N)(c1cc(F)cc(CCC(=O)O)c1)c1c[nH]c(-c2cc(Oc3c(F)c(F)c4[nH]ccc4c3F)ccc2F)n1 (single isomer, unassigned) [Example 65, 3-(3-(1-cyano-1-(2-(2-fluoro-5-((4,6,7-trifluoro-1H-indol-5-yl)oxy)phenyl)-1H-imidazol-4-yl)ethyl-2,2,2-d3)-5-fluorophenyl)propanoic acid] | B (B: 5-10° C.)
9 | [2H]C([2H])([2H])C(C#N)(c1cc(F)cc(CCC(=O)O)c1)c1c[nH]c(-c2cc(Oc3c(F)c(F)c4[nH]ccc4c3F)ccc2F)n1 (single isomer, unassigned) [Example 66, 3-(3-(1-cyano-1-(2-(2-fluoro-5-((4,6,7-trifluoro-1H-indol-5-yl)oxy)phenyl)-1H-imidazol-4-yl)ethyl-2,2,2-d3)-5-fluorophenyl)propanoic acid] | B (B: 5-10° C.)
10 | [2H]c1c[nH]c2c(F)c(F)c(Oc3ccc(F)c(-c4nc(C(C#N)(c5cc(F)cc(CCC(=O)O)c5)C([2H])([2H])[2H])c[nH]4)c3)c(F)c12 (single isomer, unassigned) [Example 67A, 3-(3-(1-cyano-1-(2-(2-fluoro-5-((4,6,7-trifluoro-1H-indol-5-yl-3-d)oxy)phenyl)-1H-imidazol-4-yl)ethyl-2,2,2-d3)-5-fluorophenyl)propanoic acid] | B (B: 5-10° C.)
11 | CS(=O)(=O)c1c(Oc2ccc(F)c(-c3ncc(Cc4ccc5c(c4)CC(C(=O)O)C5)[nH]3)c2)c(F)cc2[nH]ccc12 (single isomer, unassigned) [Example 83A, 5-((2-(2-Fluoro-5-((6-fluoro-4-(methylsulfonyl)-1H-indol-5-yl)oxy)phenyl)-1H-imidazol-5-yl)methyl)-2,3-dihydro-1H-indene-2-carboxylic acid] | B (B: 5-10° C.)
12 | CS(=O)(=O)c1c(Oc2ccc(F)c(-c3ncc(Cc4ccc5c(c4)CC(C(=O)O)C5)[nH]3)c2)c(F)cc2[nH]ccc12 (single isomer, unassigned) [Example 83B, 5-((2-(2-Fluoro-5-((6-fluoro-4-(methylsulfonyl)-1H-indol-5-yl)oxy)phenyl)-1H-imidazol-5-yl)methyl)-2,3-dihydro-1H-indene-2-carboxylic acid] | B (B: 5-10° C.)
13 | CC(c1c[nH]c(-c2cc(Oc3c(F)cc4[nH]ccc4c3S(C)(=O)=O)ccc2F)n1)c1cccc(CC(=O)O)c1F (single isomer, unassigned) [Example 85, 2-(2-fluoro-3-(1-(2-(2-fluoro-5-((6-fluoro-4-(methylsulfonyl)-1H-indol-5-yl)oxy)phenyl)-1H-imidazol-4-yl)ethyl)phenyl)acetic acid] | B (B: 5-10° C.)
14 | CC(c1cnc(-c2cc(Oc3c(F)cc4[nH]ccc4c3CC(F)(F)F)ccc2F)[nH]1)c1cccc(CCC(=O)O)c1F (single isomer, unassigned) [Example 128A, 3-(2-fluoro-3-(1-(2-(2-fluoro-5-((6-fluoro-4-(2,2,2-trifluoroethyl)-1H-indol-5-yl)oxy)phenyl)-1H-imidazol-5-yl)ethyl)phenyl)propanoic acid] | B (B: 5-10° C.)
15 | CC(c1c[nH]c(-c2cc(Oc3c(F)cc4[nH]ccc4c3CC(F)F)ccc2F)n1)c1cccc(CCC(=O)O)c1F (single isomer, unassigned) [Example 129B, 3-(3-(1-(2-(5-((4-(2,2-difluoroethyl)-6-fluoro-1H-indol-5-yl)oxy)-2-fluorophenyl)-1H-imidazol-4-yl)ethyl)-2-fluorophenyl)propanoic acid] | C (C: ≤5° C.)
16 | CC(C)OCCOCCC(c1cnc(-c2cc(Oc3c(F)cc4[nH]ccc4c3F)ccc2F)[nH]1)c1cccc(CCC(=O)O)c1F (single isomer, unassigned) [Example 130A, 3-(3-(1-(2-(5-((4,6-difluoro-1H-indol-5-yl)oxy)-2-fluorophenyl)-1H-imidazol-5-yl)-3-(2-isopropoxyethoxy)propyl)-2-fluorophenyl)propanoic acid] | C (C: ≤5° C.)
17 | CC(c1cnc(-c2cc(Oc3c(F)cc4[nH]ccc4c3F)ccc2F)[nH]1)c1cccc(CC(=O)O)c1F (single isomer, unassigned) [Example 131B, 2-(3-(1-(2-(5-((4,6-difluoro-1H-indol-5-yl)oxy)-2-fluorophenyl)-1H-imidazol-5-yl)ethyl)-2-fluorophenyl)acetic acid] | B (B: 5-10° C.)
18 | CC(c1cnc(-c2cc(Oc3c(F)cc4[nH]ccc4c3F)ccc2F)[nH]1)c1cc(F)cc(CCC(=O)O)c1F (single isomer, unassigned) [Example 132A, 3-(3-(1-(2-(5-((4,6-difluoro-1H-indol-5-yl)oxy)-2-fluorophenyl)-1H-imidazol-5-yl)ethyl)-2,5-difluorophenyl)propanoic acid] | C (C: ≤5° C.)
19 | CC(c1cnc(-c2cc(Oc3c(F)cc4[nH]ccc4c3CP(C)(C)=O)ccc2F)[nH]1)c1cccc(CCC(=O)O)c1F (single isomer, unassigned) [Example 133A, 3-(3-(1-(2-(5-((4-((dimethylphosphoryl)methyl)-6-fluoro-1H-indol-5-yl)oxy)-2-fluorophenyl)-1H-imidazol-5-yl)ethyl)-2-fluorophenyl)propanoic acid] | C (C: ≤5° C.)
20 | CC(c1cnc(-c2cc(Oc3c(F)cc4[nH]ccc4c3CN3CCCS3(=O)=O)ccc2F)[nH]1)c1cccc(CCC(=O)O)c1F (single isomer, unassigned) [Example 134A, 3-(3-(1-(2-(5-((4-((1,1-dioxidoisothiazolidin-2-yl)methyl)-6-fluoro-1H-indol-5-yl)oxy)-2-fluorophenyl)-1H-imidazol-5-yl)ethyl)-2-fluorophenyl)propanoic acid] | B (B: 5-10° C.)
